Each block holds one compound with its values, some of them ahead of it.
How the values were obtained:
[1] = test system: miR-31 hairpin (pre-miR-31 residues 20-52) (RNA, miRNA) GGCAUAGCUGUUGAACUGGGAACCUGCUAUGCC; assay: 1H-13C HSQC NMR; settings: KH2PO4 50 mM (500 mM in Methods), Mg2+ 1 mM; ND: no observable change at 10-fold ligand excess; 37 °C
[2] = test system: miR-31 hairpin (pre-miR-31 residues 20-52) (RNA, miRNA) GGCAUAGCUGUUGAACUGGGAACCUGCUAUGCC; assay: STD-NMR; settings: KH2PO4 50 mM (500 mM in Methods), Mg2+ 1 mM, 10 μM RNA, 200 μM ligand
[3] = test system: miR-31 hairpin (pre-miR-31 residues 20-52) (RNA, miRNA) GGCAUAGCUGUUGAACUGGGAACCUGCUAUGCC; assay: fluorescent indicator displacement; settings: KH2PO4 50 mM (500 mM in Methods), Mg2+ 1 mM, 100 μM compound, 50.9 nM RNA; for % TO-PRO-1 displaced: TO-PRO-1 500 nM displaced; for binding: TO-PRO-1 500 nM displaced by >15%
[4] = test system: miR-31 hairpin (pre-miR-31 residues 20-52) (RNA, miRNA) GGCAUAGCUGUUGAACUGGGAACCUGCUAUGCC; assay: fluorescence titration of dye with RNA; settings: KH2PO4 50 mM (500 mM in Methods), Mg2+ 1 mM; 500 nM TO-PRO-1, RNA 0-20 μM, pH 7.5, 2% DMSO, room temperature
[5] = test system: miR-31 hairpin (pre-miR-31 residues 20-52) (RNA, miRNA) GGCAUAGCUGUUGAACUGGGAACCUGCUAUGCC; assay: 1H-13C HSQC NMR titration (chemical shift perturbation); settings: KH2PO4 50 mM (500 mM in Methods), Mg2+ 1 mM, apparent, pH 7.5, 2% DMSO, 10% D2O, 37 °C
[6] = test system: miR-31 hairpin (pre-miR-31 residues 20-52) (RNA, miRNA) GGCAUAGCUGUUGAACUGGGAACCUGCUAUGCC; assay: 1H-13C HSQC NMR titration (peak volumes); settings: KH2PO4 50 mM (500 mM in Methods), Mg2+ 1 mM, apparent, pH 7.5, 2% DMSO, 10% D2O, 37 °C, 100 μM RNA

- binding [1]: weak
- binding ([2]; pH 7.5, 25 °C): weak
- % TO-PRO-1 displaced ([3]; below 15% hit criterion): 7.6 ± 1.8%
Structure (SMILES): COc1ccc(Nc2nc(N)nc(N)c2C#N)cc1

- KD [5]: > >1000 μM
- binding ([2]; pH 7.5, 2% DMSO, 25 °C): yes
- binding [3]: yes
Structure (SMILES): Nc1cc(Nc2ccc(Br)cc2)nc(N)n1

- % TO-PRO-1 displaced ([3]; 2% DMSO, room temperature): 28.6 ± 0.4%
- KD ([6]; excess ligand non-specific): 29.10 ± 0.15 µM
Structure (SMILES): Nc1ccc(-c2nc3cncc(N)c3[nH]2)c(O)c1

The remaining lines, values behind:

Structure (SMILES): C[n+]1c(C=C2C=CN(CCC[N+](C)(C)C)c3ccccc32)sc2ccccc21
- KD [4]: 0.46 ± 0.06 µM

Structure (SMILES): Cc1cccc(Nc2nc(N)nc(N)c2C#N)c1
- binding [1]: weak
- binding ([2]; pH 7.5, 25 °C): weak
- % TO-PRO-1 displaced ([3]; below 15% hit criterion): 7.6 ± 2.7%

Structure (SMILES): Nc1ccccc1-c1nc2cnccc2[nH]1
- KD ([5]; no saturation at 1 mM): > >1000 μM
- binding ([2]; pH 7.5, 25 °C, not detected by FID at 100 μM): yes

Structure (SMILES): Nc1nc(N)c2c(ccc3[nH]ccc32)n1
- binding [3]: yes
- KD ([6]; non-specific at 10-fold excess): 20.64 ± 9.40 µM

Source: article PMC12320293 (2025)
